Reference: patent US20050042209A1, “MUC1 extracellular domain and cancer treatment compositions and methods derived therefrom” (priority 2000, published 2005)
Read-outs that look alike come from different tables or passages of the source. d = 2'-deoxy (DNA); r = 2'-OH (RNA)

What was measured:
intracellular ROS = details: MCF-7 cells, compared to control
Description: Measurement of ROS levels: Cells were incubated with 10 mM DCF-DA Sigma) for 15 min. at 37° C. to assess ROS-mediated oxidation of the fluorescent compound DCF (LeBel et al., 1992). Fluorescence of oxidized DCF was measured at an excitation wavelength of 480 nm and an emission wavelength of 525 nm using a flow cytometer (Beckton Dickerson, Lincoln Park, N.J.).
As a control, cells were incubated with NAC, a scavenger of ROS.

MUC1 transcripts = details: MCF-7 cells
Description: Reverse transcription-polymerase chain reaction (RT-PCR): Total cellular RNA was extracted in Triazol, dissolved in RNAase-free water and incubated for 10 min. at 55° C. MUC1-specific primers (5′-[sequence]-3′ and 3′-[sequence]-5′) were designed to span a region within the genomic DNA that contains two introns and result in amplification of a 489-bp fragment from RNA and a 783-bp fragment from genomic DNA. RNA-specific primers for human β-actin were used as a control. The RNA was reverse transcribed and amplified using SuperScript One-Step RT-PCR with Platinum Taq (GIBCO-BRL Gaithersburg, Md.). Amplified fragments were analyzed by electrophoresis in 2% agarose gels.
To determine whether MUC1 expression is decreased at the mRNA level , RT-PCR was performed on MCF-7 cells treated with CDDO and the derivatives. […] Whereas CDDO induces apoptosis of diverse cell types, we assessed viability of MCF-7 cells under the same experimental conditions.

β-actin = β-actin expression after CDDO; details: 5 μM
Description: (§4) Immunoblot analysis: Cells were lysed in ice-cold lysis buffer (20 mM Tris-HCl, pH 8.0, 150 mM NaCl, 1% Triton-X-100, 1 mM phenylsulfonyl fluoride, 1 mM DTT, 10 μgm/ml aprotinin) for 30 min. Lysates were cleared by centrifugation for 20 min. at 4° C. as described (Yin et al, 2001). Proteins were separated by SDS-PAGE, transferred to nitrocellulose and probed with anti-DF3/MUC1 (Kufe, U.S. Pat. No. 5,506,34) or anti-β-actin (Sigma). The antigen-antibody complexes were visualized by enhanced chemiluminescence (ECL; Amersham Life Sciences).

MUC1 [1] = details: MUC1-positive cells
Description: Cell Culture: Human MCF-7 breast carcinoma and HeLa cervical carcinoma cella (obtained form the ATCC, Manassas, Va.) were grown in DMEM (high glucose; Mediatech, Cellgrow) supplemented with 10% heat-inactivated fetal calf serum (FCS) and 2 mM L-glutamate.
as §4
CDDO downregulates MUC1 expression: MUC1-positive cells were treated with CDDO at concentrations of 1, 3 and 5 μM.

MUC1 DF3 antigen = assay: DF3 antigen levels by immunoblot after NM-3; type: cell-based, human
Description: MCF-7 cells were treated with NM-3 (2-(8-hydroxy-6-methoxy-1-oxo-1 H-2-benzopyran-3-yl)propionic acid) at 100-400 μg/ml for 48 hr. DF3 antigen levels were visualized by immunoblot analysis with DF3 MAb (Kufe, U.S. Pat. No. 5,506,343, herein incorporated by reference).
A decrease in the intracellular levels of DF3 antigen of NM-3 treated cells relative to non-treated cells was observed. […] To determine whether NM-3 impaired the extracellular localization of the MUC1 DF3 antigen, the antigen levels in cell culture medium supernatants and on MCF-7 cells after NM-3 treatment were investigated. The levels of DF3 antigen were reduced in both localizations.

[2] = system: epidermal growth factor receptor (EGF-R); assay: EGF-R expression after NM-3; type: cell-based, human; details: MCF-7, ZR-75-1 and BT-20 cell lines
Description: To determine whether NM-3 inhibits the expression of cellular surface proteins as well, the level of epidermal growth factor receptor (EGF-R) expression after NM-3 treatment was tested on MCF-7, ZR-75-1 and BT-20 cell lines.

MUC1 RNA = assay: RT-PCR of MUC1 RNA after siRNA transfection; type: cell-based, human; details: FIG. 5
Source text: (§1) siRNAs: Five different double stranded anti-MUC1 siRNAs were designed: one against the target sequence SEQ ID NO: 63, i.e., […], with sense and antisense strands as shown in SEQ ID NO: 64 and SEQ ID NO: 65 respectively (hereinafter siRNA #1); one against the target sequence SEQ ID NO: 42, i.e., […], with sense and antisense strands as shown in SEQ ID NO: 43 and SEQ ID NO: 44 respectively (hereinafter siRNA #2); one against the target sequence SEQ ID NO: 21, i.e., […], with sense and antisense strands as shown in SEQ ID NO: 22 and SEQ ID NO: 23 respectively (hereinafter siRNA #3); one against the target sequence SEQ ID NO: 66, i.e., […], with sense and antisense strands as shown by SEQ ID NO: 67 and SEQ ID NO: 68 respectively (hereinafter siRNA #4); and one against target sequence SEQ ID NO: 69, i.e., […], with sense and antisense strands as shown by SEQ ID NO: 70 and SEQ ID NO: 71 respectively (hereinafter siRNA #5). A control siRNA was designed against the scrambled target SEQ ID NO: 72 with sense and antisense strands as shown by SEQ ID NO: 73 and SEQ ID NO: 74 respectively. Each RNA sense oligonucleotide (50 μM) was combined with equal volume of antisense oligonucleotide (50 μM) in an annealing buffer (20 mM KCl, 6 mM HEPES-KOH, pH 7.5, 0.2 mM MgCl2). The solution was incubated for 1 min at 90° C. to denature secondary structure, and placed at 37° C. for 1 hour to anneal the complementary strands. The subsequent double stranded RNAs were used as the anti-MUC1 siRNA.
RT-PCR: Total RNA was extracted and purified from cultured cells using RNAzol B according the manufacturer's instructions. The RNA was quantified by determining absorbance at 260 nm. One μg of total RNA from each sample was reverse transcribed into cDNA using Thermoscript reverse transcriptase (Invitrogen) in a volume of 20 μL. The cDNA product was amplified by PCR using Platinum Taq DNA polymerase (Invitrogen) and specific primers for MUC1 and beta-actin as an internal control. The sequences of primers used were as follows; • MUC1 (forward, 5′-[…]-3′; reverse, 5′-[…]-3′) and beta-actin (forward, 5′-[…]-3′; reverse, 5′-[…]-3′).
The reaction was performed using the following program: 94° C. for 2 min, 29 cycles (25 cycles for beta-actin) at 94° C. for 2 min, 48° C. for 1 min, 72° C. for 30s and then additional extension step of 72° C. for 10 min. The PCR products were separated on a 2% agarose gel, stained with ethidium bromide and photographed under UV light.

A549 cells [3] = assay: Proliferation of A549 cells; type: cell-based, human; details: transfection of siRNA; FIG. 8
Description: (§2) Cell culture: Human non-small cell lung cancer A549 cells were grown in RPMI1640 medium supplemented with 10% fetal bovine serum (FBS), 100 units/ml of penicillin and 100 μg/ml of streptomycin, respectively.
Transfection with siRNA: Cells (3×10^5 cells/well) were plated in 6-well plates in growth medium without antibiotics, and incubated overnight. Cells were then transfected with MUC1 siRNAs, siRNA #1, i.e., one against the target sequence SEQ ID NO: 63, i.e., […] with sense and antisense strands as shown in SEQ ID NO: 64 and SEQ ID NO: 65 respectively; and siRNA #2, i.e., one against the target sequence SEQ ID NO: 42, i.e., […] with sense and antisense strands as shown in SEQ ID NO: 43 and SEQ ID NO: 44 respectively, and one control siRNA directed towards the non-specific gene target […] using Oligofectamine reagent (Invitrogen) according to the manufacturer's instructions. After 24 hr of transfection, the medium was changed to complete medium containing antibiotics.
(§3) Treatment of Cells with cisplatinum (CDDP): At 72 hr post transfection of siRNAs, 10 μM CDDP was added to the cells in fresh culture medium. After 48 hr of CDDP exposure cells were trypsinized and analyzed for MUC1 expression and apoptosis as described below.

MUC1 [4] = assay: Western blot of MUC1 after siRNA transfection; type: cell-based, human; details: siRNA 0.2 micromolar
Source text: Cell Culture: Human MCF-7 breast cancer cells were maintained in DMEM supplemented with 10% heat inactivated fetal bovine serum (FBS) and 1% penicillin-streptomycin mixture. Human A549 non-small cell lung cancer cells were maintained in RPMI1640 medium supplemented with 10% FBS and 1% penicillin-streptomycin mixture.
as §1
Transfection: Cells (1-3×10^5 cells/well) were plated in 6-well plates in growth medium without antibiotics, and incubated overnight. After washing cells once with Opti-MEM I (Invitrogen), 800 μL of fresh Opti-MEM I and 200 μL of the Reagent (Invitrogen) were added to the cultured cells. Four hours later, 300 μL of FBS was added to the cultured cells.
Western Blot Analysis: Cell were passed a day before transfection. MUC1 siRNA (0.2 micromolar) was added with oligofectamine to cells in 0% FBS. Four hours later serum was added to a final concentration of 10%. After various time intervals (48 h, 72 h and 96 h), cells were washed and total cell lysates were prepared. Proteins were separated from cell lysates by SDS-PAGE, transferred to nitrocellulose and analyzed by immunoblotting with anti-DF3 antibodies.

A549 cells [5] = assay: Apoptosis assay (Annexin V-FITC/PI) in A549 cells; type: cell-based, human; details: FIG. 7
Description: as §2
Transfection with siRNA: Cells (3×10^5 cells/well) were plated in 6-well plates in growth medium without antibiotics, and incubated overnight. […]
as §3
Apoptosis assay.: A549 cells were initially stained for MUC1 expression using the DF3 monoclonal antibody (Kufe, U.S. Pat. No. 5,506,343, herein incorporated by reference). […] The amount of DF3 staining was then measured using a biotinylated goat anti-mouse secondary antibody (diluted 1:200 in staining buffer) and streptavidin-conjugated phycoerythrin (diluted 1:50 in staining buffer). After fluorescent staining for MUC1 expression, apoptosis was determined by staining cells with Annexin V-FITC and propidium iodide (PI). […] Using a flow cytometer, (EPICS XL-MCL, Coulter Corp), the amount of MUC1 expressing cells were determined using the FL2 detector, annexin V-FITC staining was measured in the FL1 detector and propidium iodide staining was measured in the FL3 detector. […]

Row | Molecule | MUC1 expression at the RNA level (RT-PCR) (MUC1 RNA; A549 cells) | MUC1 expression at the RNA level (RT-PCR) (MUC1 RNA; MCF-7 cells) | proliferation of A549 cells (A549 cells [3]) | MUC1 expression at the protein level (immunoblot) (MUC1 [4]; A549 cells, FIG. 5) | MUC1 expression at the protein level (immunoblot) (MUC1 [4]; MCF-7 cells, FIG. 5, FIG. 6) | other results
1 | CC1(C)CC[C@]2(C(=O)O)CC[C@]3(C)[C@H](C(=O)C=C4[C@@]5(C)C=C(C#N)C(=O)C(C)(C)[C@@H]5CC[C@]43C)[C@@H]2C1 [CDDO] |  |  |  |  |  | ROS (oxidation of DCF) (intracellular ROS): detectable increases; MUC1 transcripts (RT-PCR) (MUC1 transcripts): decrease; β-actin gene expression (β-actin): no apparent effect; MUC1 protein (immunoblot) (MUC1 [1]; 5 μM): decreased levels; MUC1 protein (immunoblot) (MUC1 [1]; 1 or 3 μM at 24 hr): little if any effect
2 | COc1cc(O)c2c(=O)oc(C(C)C(=O)O)cc2c1 (centres unmarked) [NM-3, 2-(8-hydroxy-6-methoxy-1-oxo-1 H-2-benzopyran-3-yl)propionic acid] |  |  |  |  |  | levels of DF3 antigen in cell culture medium supernatants and on MCF-7 cells (MUC1 DF3 antigen; MCF-7 cells after NM-3 treatment): reduced; intracellular levels of DF3 antigen (MUC1 DF3 antigen; MCF-7 cells, 100-400 μg/ml for 48 hr, relative to non-treated cells): decrease; EGF-R expression [2]: no detectable changes
3 | siRNA #1: double stranded anti-MUC1 siRNA, target SEQ ID NO: 63, sense SEQ ID NO: 64, antisense SEQ ID NO: 65 (sense GGGGGUUUUCUGGGCCUCUTT; antisense AGAGGCCCAGAAAACCCCCTT; sugars from the 5' end r19 d2, backbone not given here) | downregulate MUC1 expression | downregulate MUC1 expression | decreased the proliferation | downregulate MUC1 expression | downregulate MUC1 expression | 
4 | siRNA #2: double stranded anti-MUC1 siRNA, target SEQ ID NO: 42, sense SEQ ID NO: 43, antisense SEQ ID NO: 44 (sense GGUACCAUCAAUGUCCACGTT; antisense CGUGGACAUUGAUGGUACCTT; sugars from the 5' end r19 d2, backbone not given here) | downregulate MUC1 expression | downregulate MUC1 expression | decreased the proliferation | downregulate MUC1 expression | downregulate MUC1 expression | percentage of apoptotic cells (A549 cells [5]; A549 cells transfected with siRNA, relative to controls): increase; percentage of apoptotic cells, combination (A549 cells [5]; A549 cells, siRNA 72 hr then 10 μM CDDP 48 hr): more than additively enhances
